From BindingDB's records for doi:10.1021/jm00349a003 (1982)

molecular target: Dihydrofolate reductase (Lacticaseibacillus casei, UniProt P00381); test: Inhibitory activity against dihydrofolate reductase (DHFR) from Lactobacillus casei (expressed as log 1/Kiapp)
Sequence (P00381 whole entry): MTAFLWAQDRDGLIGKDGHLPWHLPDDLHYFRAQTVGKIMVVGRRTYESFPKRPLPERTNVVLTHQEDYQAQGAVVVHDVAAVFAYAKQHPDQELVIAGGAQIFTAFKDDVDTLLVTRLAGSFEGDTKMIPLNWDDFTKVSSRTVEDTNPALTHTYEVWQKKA

| SMILES | Ki [µM] |
| --- | --- |
| COCCOc1c(OC)cc(Cc2cnc(N)nc2N)cc1OC [5-[3,5-Dimethoxy-4-(2-methoxy-ethoxy)-benzyl]-pyrimidine-2,4-diamine] | 0.55 |
| Nc1ncc(Cc2cccc(F)c2)c(N)n1 | 4.17 |
| Nc1ncc(Cc2ccc([N+](=O)[O-])cc2)c(N)n1 | 1 |
| CCCCOCc1cccc(Cc2cnc(N)nc2N)c1 | 3.24 |
| NC(=O)COc1cccc(Cc2cnc(N)nc2N)c1 | 1.1 |
| COCCOc1ccc(Cc2cnc(N)nc2N)cc1 | 0.891 |
| Nc1ncc(Cc2cc(O)cc(O)c2)c(N)n1 | 417 |
| Nc1ncc(Cc2ccc(Cl)cc2)c(N)n1 | 0.646 |
| COCCOc1ccc(Cc2cnc(N)nc2N)cc1OCCOC | 0.309 |
| Nc1ncc(Cc2cccc(Cl)c2)c(N)n1 | 1.26 |
| CC(=O)Nc1ccc(Cc2cnc(N)nc2N)cc1 | 0.891 |
| Nc1ncc(Cc2cccc(Br)c2)c(N)n1 | 0.589 |
| COCc1cccc(Cc2cnc(N)nc2N)c1 | 2.29 |
| Cc1ccc(Cc2cnc(N)nc2N)cc1 | 1.48 |
| Cc1cccc(Cc2cnc(N)nc2N)c1 | 1.66 |
| CC(=O)Nc1ccc(Cc2cnc(N)nc2N)cc1[N+](=O)[O-] | 1 |

Further molecules by falling Ki, results first:

| Ki [µM] | SMILES |
| --- | --- |
| 6.31 | Nc1ncc(Cc2ccccc2)c(N)n1 |
| 4.37 | CCCCCCCOc1ccc(Cc2cnc(N)nc2N)cc1 [5-(4-Heptyloxy-benzyl)-pyrimidine-2,4-diamine] |
| 3.39 | Nc1ccc(Cc2cnc(N)nc2N)cc1 |
| 2.14 | Nc1ncc(Cc2ccc(F)cc2)c(N)n1 |
| 2.14 | Nc1ncc(Cc2cccc(CO)c2)c(N)n1 |
| 1.86 | Nc1ncc(Cc2cc(CO)cc(CO)c2)c(N)n1 |
| 1.86 | CCCCCCOc1ccc(Cc2cnc(N)nc2N)cc1 |
| 1.51 | Nc1ncc(Cc2cccc(O)c2)c(N)n1 [3-(2,4-Diamino-pyrimidin-5-ylmethyl)-phenol] |
| 1.44 | Nc1ncc(Cc2ccc(O)c(O)c2)c(N)n1 |
| 1.2 | CS(=O)(=O)Oc1cccc(Cc2cnc(N)nc2N)c1 |
| 0.759 | COCCOc1cccc(Cc2cnc(N)nc2N)c1 |
| 0.692 | Nc1ncc(Cc2cccc(C(F)(F)F)c2)c(N)n1 |
| 0.676 | CN(C)c1ccc(Cc2cnc(N)nc2N)cc1 |
| 0.617 | Nc1ncc(Cc2ccc(Br)cc2)c(N)n1 |
| 0.501 | Nc1ncc(Cc2ccc(OC(F)(F)F)cc2)c(N)n1 |
| 0.427 | CCCCOc1ccc(Cc2cnc(N)nc2N)cc1 |
| 0.214 | Nc1ncc(Cc2cccc(I)c2)c(N)n1 |
| 0.12 | COc1ccc(Cc2cnc(N)nc2N)cc1OC [Diaveridine] |
| 0.05 | COc1ccc(Cc2cnc(N)nc2N)cc1C(F)(F)F |
